Reference: ChEMBL document CHEMBL1155618, “Junceellolides E-G, new briarane diterpenes from the West Pacific Ocean gorgonian Junceella fragilis” (J Nat Prod, 2000)
Calls of active or inactive are those of the source.

Legend:
Type in all cases: functional, cell-based
A549 = assay: Cytotoxicity against human A549 cells
P388 = assay: Cytotoxicity against mouse P388 cells
HT-29 = assay: Cytotoxicity against human HT29 cells

Measured: Activity

C=C1CC[C@H](OC(C)=O)[C@@]2(C)[C@H]1[C@@H](OC(C)=O)[C@@]1(O)[C@H](/C=C(/C)CC[C@H]2OC(=O)CC)OC(=O)[C@@H]1C
inactive: all assays above

CC(=O)O[C@@H]1[C@@H]2[C@@](C)([C@H](O)CC/C(C)=C\[C@@H]3OC(=O)[C@H](C)[C@]31O)[C@@H](O)CC[C@]2(C)O
inactive: all assays above

CCC(=O)O[C@@H]1CC/C(C)=C\[C@@H]2OC(=O)[C@H](C)[C@@]2(O)[C@H](OC(C)=O)[C@H]2[C@]3(CC[C@H](OC(C)=O)[C@]12C)CO3
inactive: all assays above

C=C1CC[C@H](OC(C)=O)[C@@]2(C)[C@H]1[C@@H](OC(C)=O)[C@@]1(O)[C@H](/C=C(/C)CC[C@H]2OC(C)=O)OC(=O)[C@@H]1C
inactive: all assays above
